The record followed here is ChEMBL document CHEMBL4028801, “A multifactorial approach to hepatobiliary transporter assessment enables improved therapeutic compound development” (Toxicol Sci, 2013).

The target of series [1] is ATP-binding cassette sub-family C member 2 (Homo sapiens, UniProt Q92887). Put plainly: Inhibition of human MRP2 overexpressed in Sf9 cell membrane vesicles assessed as uptake of [3H]-estradiol-17beta-D-glucuronide in presence of ATP and GSH measured after 20 mins by membrane vesicle transport assay.
Sequence of ATP-binding cassette sub-family C member 2 (Q92887 whole entry): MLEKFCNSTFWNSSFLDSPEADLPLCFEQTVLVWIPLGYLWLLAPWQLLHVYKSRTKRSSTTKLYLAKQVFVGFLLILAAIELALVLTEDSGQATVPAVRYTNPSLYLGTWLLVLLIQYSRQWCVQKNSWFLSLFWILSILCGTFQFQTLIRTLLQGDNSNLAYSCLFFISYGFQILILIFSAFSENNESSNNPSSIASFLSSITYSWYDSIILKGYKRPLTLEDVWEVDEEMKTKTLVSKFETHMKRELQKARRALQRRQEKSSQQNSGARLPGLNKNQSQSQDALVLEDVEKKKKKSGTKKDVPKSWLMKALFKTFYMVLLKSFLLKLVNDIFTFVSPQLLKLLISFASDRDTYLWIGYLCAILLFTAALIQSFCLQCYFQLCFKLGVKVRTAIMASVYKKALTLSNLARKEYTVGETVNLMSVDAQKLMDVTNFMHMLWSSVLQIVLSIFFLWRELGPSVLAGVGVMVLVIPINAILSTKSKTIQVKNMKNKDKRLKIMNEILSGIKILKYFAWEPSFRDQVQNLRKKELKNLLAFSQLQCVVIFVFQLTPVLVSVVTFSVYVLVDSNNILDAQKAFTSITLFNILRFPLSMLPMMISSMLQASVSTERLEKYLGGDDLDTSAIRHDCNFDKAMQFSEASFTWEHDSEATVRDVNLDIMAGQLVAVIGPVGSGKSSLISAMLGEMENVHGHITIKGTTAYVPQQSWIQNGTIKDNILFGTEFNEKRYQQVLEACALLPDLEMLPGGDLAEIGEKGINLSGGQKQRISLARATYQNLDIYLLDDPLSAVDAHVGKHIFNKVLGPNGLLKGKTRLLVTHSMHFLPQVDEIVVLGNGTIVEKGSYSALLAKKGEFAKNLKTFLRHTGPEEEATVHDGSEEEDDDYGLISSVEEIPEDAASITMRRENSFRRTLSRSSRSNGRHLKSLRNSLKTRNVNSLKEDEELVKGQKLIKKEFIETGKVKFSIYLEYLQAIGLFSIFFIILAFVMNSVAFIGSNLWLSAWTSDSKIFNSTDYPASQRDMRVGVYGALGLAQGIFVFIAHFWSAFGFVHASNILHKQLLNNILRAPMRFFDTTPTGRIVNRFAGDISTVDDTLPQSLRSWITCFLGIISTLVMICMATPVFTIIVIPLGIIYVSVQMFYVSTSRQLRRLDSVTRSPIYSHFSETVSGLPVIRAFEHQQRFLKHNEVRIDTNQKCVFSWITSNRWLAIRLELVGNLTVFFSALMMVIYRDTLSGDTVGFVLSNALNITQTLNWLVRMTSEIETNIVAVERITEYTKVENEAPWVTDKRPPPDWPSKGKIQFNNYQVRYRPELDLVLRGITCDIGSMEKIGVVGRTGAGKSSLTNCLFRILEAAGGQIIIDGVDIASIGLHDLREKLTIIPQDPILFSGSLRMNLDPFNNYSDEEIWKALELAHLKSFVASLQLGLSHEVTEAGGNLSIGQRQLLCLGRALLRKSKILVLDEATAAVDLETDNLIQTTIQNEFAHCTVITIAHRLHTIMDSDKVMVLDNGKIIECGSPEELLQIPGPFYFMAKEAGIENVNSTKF
Series [2] can be described thus: AUC in human at 1250 mg, po QD after 24 hrs. The series is classed as ADME, organism-based. The arrangement: time < 24 hr, dose 1250 mg, route oral. As to conditions: in vivo.
Series [3] has as its target T1, ATP-binding cassette sub-family C member 4 (Homo sapiens, UniProt O15439).
T1 sequence (O15439 whole entry): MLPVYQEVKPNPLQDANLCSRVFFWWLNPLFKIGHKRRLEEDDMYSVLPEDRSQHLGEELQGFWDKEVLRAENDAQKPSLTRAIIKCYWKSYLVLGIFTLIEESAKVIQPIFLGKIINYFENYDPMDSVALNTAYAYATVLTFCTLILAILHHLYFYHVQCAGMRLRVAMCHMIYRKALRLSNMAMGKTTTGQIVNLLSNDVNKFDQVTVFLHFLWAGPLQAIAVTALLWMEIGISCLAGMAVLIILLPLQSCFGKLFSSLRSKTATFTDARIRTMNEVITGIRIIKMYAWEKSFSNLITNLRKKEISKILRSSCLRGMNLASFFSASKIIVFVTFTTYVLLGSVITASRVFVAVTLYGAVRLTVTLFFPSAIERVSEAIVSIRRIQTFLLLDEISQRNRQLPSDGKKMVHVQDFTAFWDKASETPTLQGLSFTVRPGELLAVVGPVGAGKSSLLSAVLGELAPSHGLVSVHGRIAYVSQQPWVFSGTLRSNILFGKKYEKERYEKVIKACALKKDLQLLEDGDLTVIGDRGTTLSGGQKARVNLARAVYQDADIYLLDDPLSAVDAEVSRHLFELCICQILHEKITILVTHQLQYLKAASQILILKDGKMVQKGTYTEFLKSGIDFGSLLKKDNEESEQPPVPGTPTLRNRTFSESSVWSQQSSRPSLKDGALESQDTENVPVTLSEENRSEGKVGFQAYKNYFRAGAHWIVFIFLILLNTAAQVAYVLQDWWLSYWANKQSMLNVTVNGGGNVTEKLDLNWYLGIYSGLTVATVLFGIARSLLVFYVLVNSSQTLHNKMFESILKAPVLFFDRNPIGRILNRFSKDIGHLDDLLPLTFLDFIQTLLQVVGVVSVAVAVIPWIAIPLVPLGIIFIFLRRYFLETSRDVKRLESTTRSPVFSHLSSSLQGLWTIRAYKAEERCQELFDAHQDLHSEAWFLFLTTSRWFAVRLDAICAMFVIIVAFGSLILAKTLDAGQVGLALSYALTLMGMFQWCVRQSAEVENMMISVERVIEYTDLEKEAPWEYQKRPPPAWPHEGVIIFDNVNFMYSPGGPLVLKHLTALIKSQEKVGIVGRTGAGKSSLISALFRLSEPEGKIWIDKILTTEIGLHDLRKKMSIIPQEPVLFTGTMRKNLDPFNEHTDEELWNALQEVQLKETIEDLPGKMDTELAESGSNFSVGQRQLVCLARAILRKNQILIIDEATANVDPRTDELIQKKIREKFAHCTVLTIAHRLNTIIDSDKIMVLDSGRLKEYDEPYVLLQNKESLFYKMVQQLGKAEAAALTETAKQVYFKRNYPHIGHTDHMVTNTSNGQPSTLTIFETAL
Put plainly: Inhibition of human MRP4 overexpressed in Sf9 cell membrane vesicles assessed as uptake of [3H]-estradiol-17beta-D-glucuronide in presence of ATP and GSH measured after 20 mins by membrane vesicle transport assay. Type of series: ADME, cell-based.

Series [4] in a line: Drug concentration at steady state in human at 1250 mg, po QD after 24 hrs. Type of series: ADME, organism-based. As to conditions: in vivo, read-out: Css.
Series [5] can be described thus: Ratio of drug concentration at steady state in human at 1250 mg, po QD after 24 hrs to IC50 for human BSEP overexpressed in Sf9 insect cells. As to conditions: in vivo. The series is classed as ADME, organism-based.
For series [6], the target named is ATP-binding cassette sub-family C member 3 (Homo sapiens, UniProt O15438). The series can be described thus: Inhibition of human MRP3 overexpressed in Sf9 insect cell membrane vesicles assessed as uptake of [3H]-estradiol-17beta-D-glucuronide in presence of ATP and GSH measured after 10 mins by membrane vesicle transport assay. The series is classed as ADME, cell-based.
Sequence of ATP-binding cassette sub-family C member 3 (O15438 whole entry): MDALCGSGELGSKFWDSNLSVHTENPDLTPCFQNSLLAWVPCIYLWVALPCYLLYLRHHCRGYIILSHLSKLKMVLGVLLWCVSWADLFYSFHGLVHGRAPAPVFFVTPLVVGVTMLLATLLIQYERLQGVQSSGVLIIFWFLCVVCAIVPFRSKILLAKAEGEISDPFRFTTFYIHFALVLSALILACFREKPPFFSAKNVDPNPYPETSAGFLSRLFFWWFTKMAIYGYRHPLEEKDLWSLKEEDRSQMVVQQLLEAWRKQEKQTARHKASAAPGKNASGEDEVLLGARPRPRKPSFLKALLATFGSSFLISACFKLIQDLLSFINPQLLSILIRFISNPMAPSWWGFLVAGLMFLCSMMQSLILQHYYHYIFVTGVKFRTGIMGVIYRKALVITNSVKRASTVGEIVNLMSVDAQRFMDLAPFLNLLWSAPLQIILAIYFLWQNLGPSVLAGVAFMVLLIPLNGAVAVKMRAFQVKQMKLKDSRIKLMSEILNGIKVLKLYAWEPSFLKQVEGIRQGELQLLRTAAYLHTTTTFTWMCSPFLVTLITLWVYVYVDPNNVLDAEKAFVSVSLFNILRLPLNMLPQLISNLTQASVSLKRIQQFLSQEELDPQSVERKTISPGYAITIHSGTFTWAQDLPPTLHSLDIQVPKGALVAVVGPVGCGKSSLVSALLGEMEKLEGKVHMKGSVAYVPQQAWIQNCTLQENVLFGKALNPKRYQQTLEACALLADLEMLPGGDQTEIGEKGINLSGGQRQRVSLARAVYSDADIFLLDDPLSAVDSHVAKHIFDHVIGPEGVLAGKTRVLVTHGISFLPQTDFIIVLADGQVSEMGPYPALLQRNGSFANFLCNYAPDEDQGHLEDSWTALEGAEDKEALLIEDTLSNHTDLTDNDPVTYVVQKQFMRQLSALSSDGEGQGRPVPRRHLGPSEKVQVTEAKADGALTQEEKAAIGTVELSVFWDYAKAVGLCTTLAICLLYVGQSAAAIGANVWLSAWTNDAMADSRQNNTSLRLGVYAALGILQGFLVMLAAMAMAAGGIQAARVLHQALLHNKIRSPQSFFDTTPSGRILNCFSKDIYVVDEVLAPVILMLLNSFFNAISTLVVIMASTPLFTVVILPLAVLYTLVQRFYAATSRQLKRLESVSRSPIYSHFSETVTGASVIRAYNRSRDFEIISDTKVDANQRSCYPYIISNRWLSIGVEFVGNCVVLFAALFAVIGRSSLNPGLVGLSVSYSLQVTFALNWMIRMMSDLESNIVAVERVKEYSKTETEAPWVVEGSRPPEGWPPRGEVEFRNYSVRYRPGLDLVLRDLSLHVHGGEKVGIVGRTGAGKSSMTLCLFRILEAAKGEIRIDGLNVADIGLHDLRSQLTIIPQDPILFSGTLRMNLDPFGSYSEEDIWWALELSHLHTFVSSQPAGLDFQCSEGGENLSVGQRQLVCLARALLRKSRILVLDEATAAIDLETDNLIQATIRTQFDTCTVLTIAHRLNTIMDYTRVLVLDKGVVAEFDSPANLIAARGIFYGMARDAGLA

The nature of series [7]: Ratio of drug concentration at steady state in human at 2 g, po QD after 24 hrs to IC50 for human BSEP overexpressed in Sf9 insect cells. The series is classed as ADME, organism-based. The conditions noted are these: in vivo.
Series [8] is described as follows: Drug concentration at steady state in human at 2 g, po QD after 24 hrs. The series is classed as ADME, organism-based. The conditions noted are these: in vivo, read-out: Css.
A short description of series [9]: AUC in human at 2 g, po QD after 24 hrs. Further details: dose 2 g, time < 24 hr, route oral. Type of series: ADME, organism-based. The conditions noted are these: in vivo.
The target of the next series is Bile salt export pump (Homo sapiens, UniProt O95342). Put plainly: Inhibition of human BSEP overexpressed in Sf9 cell membrane vesicles assessed as uptake of [3H]-taurocholate in presence of ATP measured after 15 to 20 mins by membrane vesicle transport assay. The series is classed as ADME, cell-based.
Sequence of Bile salt export pump (O95342 whole entry): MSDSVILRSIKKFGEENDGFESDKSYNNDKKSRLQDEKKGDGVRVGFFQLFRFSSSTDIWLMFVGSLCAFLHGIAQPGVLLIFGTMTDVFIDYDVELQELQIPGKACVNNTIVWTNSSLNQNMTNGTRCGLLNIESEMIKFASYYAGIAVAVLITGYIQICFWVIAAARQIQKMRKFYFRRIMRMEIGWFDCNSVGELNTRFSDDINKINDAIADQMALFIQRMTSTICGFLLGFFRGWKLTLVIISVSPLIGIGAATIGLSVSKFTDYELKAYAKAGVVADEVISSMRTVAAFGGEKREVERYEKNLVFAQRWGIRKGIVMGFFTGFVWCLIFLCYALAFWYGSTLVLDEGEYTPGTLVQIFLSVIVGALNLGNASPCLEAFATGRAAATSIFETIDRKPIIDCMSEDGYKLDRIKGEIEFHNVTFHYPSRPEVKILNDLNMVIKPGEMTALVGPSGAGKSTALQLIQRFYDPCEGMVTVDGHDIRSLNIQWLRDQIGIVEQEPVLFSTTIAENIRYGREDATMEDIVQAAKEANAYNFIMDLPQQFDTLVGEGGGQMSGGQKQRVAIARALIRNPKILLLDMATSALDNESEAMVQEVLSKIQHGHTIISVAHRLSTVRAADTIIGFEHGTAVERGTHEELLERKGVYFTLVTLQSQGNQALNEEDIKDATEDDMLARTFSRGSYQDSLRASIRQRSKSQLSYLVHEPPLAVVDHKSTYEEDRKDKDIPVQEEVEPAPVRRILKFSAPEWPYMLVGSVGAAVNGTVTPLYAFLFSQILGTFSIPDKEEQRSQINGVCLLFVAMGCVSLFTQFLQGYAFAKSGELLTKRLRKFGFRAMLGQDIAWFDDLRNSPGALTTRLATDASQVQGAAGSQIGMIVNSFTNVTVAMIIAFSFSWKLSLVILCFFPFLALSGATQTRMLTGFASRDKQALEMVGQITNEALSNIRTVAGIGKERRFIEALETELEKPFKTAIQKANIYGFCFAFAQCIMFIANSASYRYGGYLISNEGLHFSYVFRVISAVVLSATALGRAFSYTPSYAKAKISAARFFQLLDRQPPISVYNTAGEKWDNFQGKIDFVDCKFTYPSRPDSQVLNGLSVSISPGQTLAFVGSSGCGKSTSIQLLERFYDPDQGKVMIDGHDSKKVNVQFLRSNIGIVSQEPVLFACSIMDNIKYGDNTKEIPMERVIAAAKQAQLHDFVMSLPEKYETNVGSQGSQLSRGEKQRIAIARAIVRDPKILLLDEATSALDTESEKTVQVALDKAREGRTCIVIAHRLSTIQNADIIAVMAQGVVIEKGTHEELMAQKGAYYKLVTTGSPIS
A short description of series [10]: Drug concentration at steady state in human at 125 to 500 mg, po QID after 6 hrs. The series is classed as ADME, organism-based. The conditions noted are these: in vivo, read-out: Css.
The nature of series [11]: Ratio of drug concentration at steady state in human at 125 to 500 mg, po QID after 6 hrs to IC50 for human BSEP overexpressed in Sf9 insect cells. Type of series: ADME, organism-based. As to conditions: in vivo.
Series [12] can be described thus: AUC in human at 125 to 500 mg, po QID after 6 hrs. The series is classed as ADME, organism-based. The conditions noted are these: in vivo.
The nature of series [13]: Drug concentration at steady state in human at 200 mg, po QD after 24 hrs. Type of series: ADME, organism-based. As to conditions: in vivo, read-out: Css.
Series [14] can be described thus: Ratio of drug concentration at steady state in human at 200 mg, po QD after 24 hrs to IC50 for human MRP4 overexpressed in Sf9 insect cells. The series is classed as ADME, organism-based. The conditions noted are these: in vivo.
The nature of series [15]: Ratio of drug concentration at steady state in human at 200 mg, po QD after 24 hrs to IC50 for human BSEP overexpressed in Sf9 insect cells. Type of series: ADME, organism-based. As to conditions: in vivo.
A short description of series [16]: AUC in human at 200 mg, po QD after 24 hrs. The series is classed as ADME, organism-based. The arrangement: time < 24 hr, dose 200 mg, route oral. As to conditions: in vivo.

Turning to `CS(=O)(=O)CCNCc1ccc(-c2ccc3ncnc(Nc4ccc(OCc5cccc(F)c5)c(Cl)c4)c3c2)o1.Cc1ccc(S(=O)(=O)O)cc1`, the IC50 in series [1], in series [3] and in series [6] was > 133 µM each time. In series [2], this compound yielded an area under the curve (AUC) at 24 h of 62.3 µM·h. For the same compound, the concentration at 24 h in [4] turned out to be 2.6 µM. Further, in [5], the Ratio amounted to 0.4.
Turning to `CCOC(=O)C(C)(C)Oc1ccc(Cl)cc1` [CLOFIBRATE], the IC50 in series [1] is > 133 µM; in series [3], > 133 µM; on Bile salt export pump, 71 µM; in series [6], > 133 µM. Further, the Ratio in series [7] is 0.381. In addition, the concentration at 24 h in [8] was found to be 27.1 µM. The same compound registered an AUC at 24 h in series [9] of 649 µM·h.
Turning to `Cc1onc(-c2c(Cl)cccc2Cl)c1C(=O)N[C@@H]1C(=O)N2[C@@H]1SC(C)(C)[C@@H]2C(=O)O` [DICLOXACILLIN], the IC50 in series [1] is > 133 µM; in series [3] it was > 133 µM; on Bile salt export pump, 56.4 µM; in [6] it was > 133 µM. Besides, in series [10], the concentration at 6 h stood at 28.1 µM. Besides, the Ratio in [11] came out at 0.498. The compound further registered an AUC at 6 h in [12] of 168 µM·h.
For `CC(=O)N1CCN(c2ccc(OCC3COC(Cn4ccnc4)(c4ccc(Cl)cc4Cl)O3)cc2)CC1` (configuration not stated) [KETOCONAZOLE], in series [13], the concentration at 24 h is 1.29 µM. In addition, the IC50 was > 133 µM in series [1], 69 µM in [3] and > 133 µM in [6]. Also, the figures for the Ratio in series [14] and in series [15] were 0.019 and 0.381, respectively. Also, the AUC at 24 h in [16] is 31.1 µM·h.

As usually defined, the IC50 is the point on the concentration scale where inhibition reaches its midpoint. As usually defined, the AUC is concentration integrated over time. A low value points to less exposure.
